Experimental data published in patent US9867809B2, “Encapsulated active ingredients for controlled enteric release” (Kemin Industries, Inc., priority 2015, dated 2018).

Assays:
[1] = Butyric acid in intestinal contents and excreta of broilers by gas chromatography; type: in vivo, chicken; conditions: day 28, birds fed the supplemented diet
Protocol: On days 14 and 28, after weighing, 4 birds per cage were harvested. From each of the harvested birds, a 1 inch section from the beginning of the ileum was cut off and flash frozen. The remaining intestinal tract was cut into 3 sections (upper, middle and cecal), the intestinal contents for each section were pooled by cage, and frozen in liquid nitrogen. A sample of excreta was collected by cage and frozen.
The samples of the feed and intestinal contents were analyzed for butyric acid by gas chromatography.

[2] = system: male Cobb×Cobb 500 broiler chickens; assay: Performance trial in broiler chickens; type: in vivo, chicken
Source text: A chicken, broiler performance trial was completed to understand if granules with different in-vitro dissolution rates would perform differently in an animal model. […] Therefore two different granules were made, one with a fast dissolution, and one with a slow dissolution. […] The experiment used 72 cages of 10 male Cobb×Cobb 500 broiler chickens. The treatments were replicated in eighteen blocks where the four treatments were randomized within each block. All the treatments contained equal amount of zinc and treatments B, C and D had same amount of butyric acid. The diet given in Tables 5 and 6 was supplemented with the treatments in Table 4. The starter diet was fed day 0 to 14 and the grower diet was fed day 14 to 28. All diets were fed as non-pelleted mash feed. Bird weights and feed consumption by cage were recorded on Days 0, 14, 21, 28.

[3] = after 28 days, supplement in basal diet, 153 ppm zinc

Row | Structure (SMILES) | butyric acid in the ileal contents [1] | Avg. Wt. [2, 3] [kg] | Feed Conversion [2, 3] | Feed Intake [2, 3] | Avg. Wt. ([2]; in vivo) [kg] | Feed Conversion ([2]; in vivo) | Feed Intake ([2]; in vivo)
1 | CCCC(=O)[O-].CCCC(=O)[O-].[Zn+2] [ZBA Powder, zinc salt of butyric acid in a molar ratio of 1:2] | no detectible butyric acid | 1.043 | 1.589 | 11.06 |  |  | 
2 | O=S(=O)([O-])[O-].[Zn+2] [Zinc Sulfate Powder, Zinc Sulfate, reference compound] |  |  |  |  | 1.010 | 1.620 | 10.93
